Measurements taken from publication PMC10786692 (The Journal of Clinical Investigation, 2024).
Several values for one entry are separate records, joined by “and”; a condition that tells them apart may be missing. Equal values may be shown once.

What was measured:
tumor biopsies [1] = assay: Stromal TIL count (H&E) and PD-L1 IHC in tumor biopsies; type: in vivo, human
Text: Supplementary Pharmacodynamic methods
Formalin fixed paraffin-embedded tumor samples were used. […]
Quantification of tumor-infiltrating lymphocytes was done using a semi-automated method in QuPath (53). Scanned H&E sections were first segmented into tumor and stroma, using a random trees machine-learning classifier, for each tumor section. Nuclei were segmented using Stardist (54), then stromal nuclei were sorted by size (area <20 µm2) and circularity (>0.85), using small circular nuclei to approximate lymphocyte

tumor biopsies [2] = assay: CIBERSORTx cell-type deconvolution of tumor biopsy RNA-Seq; type: in vivo, human; details: individual patients
Description: signatures for heatmap construction were used from MSigDB (49) and cell-type-related
transcripts from NanoString annotations and Bindea et al (50). Cell-type deconvolution was
performed using CIBERSORTx (51). […]

phospho-(S345)Chk1 = assay: PBMC phospho-Chk1 immunofluorescence; type: in vivo, human; details: after 2-week dosing
Description: PD sampling took place at baseline (within 7 days prior to dosing) and between days 15 and 22 of dosing (day 14 for intermittent dosing cohorts). PD samples included PBMCs and tumor biopsies. PBMCs were analyzed by immunofluorescence for γ^(S139)H2AX, p-^(S345)Chk1, and total Chk1, as described in Supplemental Methods. Paired tumor biopsies were formalin fixed and analyzed for nuclear p-^(S635)Rad50 and γH2AX by IHC.
PBMCs were isolated from blood using BD Vacutainer® CPT™ Cell preparation tubes with sodium citrate (BD Biosciences, Wokingham, UK) and fixed with 4% formalin containing 1% Triton™ X-100 (Sigma-Aldrich, St. Louis, MO). […] A Carl Zeiss LSM 700 confocal laser scanning fluorescence microscope (Zeiss, Jena, Germany) was used to visualize and capture images of the PBMCs. Fluorescent nuclear intensity for phospho-(S345) and total Chk1 in individual PBMC cells were quantified using the IN Cell Investigator Developer Toolbox v1.9 software (GE Healthcare Biosciences, Piscataway, NJ). For the phospho(S345)- and total Chk1 assays: the raw data values (fluorescent nuclear intensity for PBMCs), the percentage change for phospho(S345) biomarker was calculated for each subject by comparing the levels measured at each post-dose time point to pre-dose levels measured at baseline. […]
Peripheral blood was drawn into 8 mL EDTA tubes (Vacutainer, BD) and analyzed within 24 hours. […]

[3] = preclinical monotherapy; cited from earlier work
[4] = Treatment-related adverse events (CTCAE v4.03), PATRIOT phase I; type: in vivo; details: for TRAE Overall events: n: Total
Description: For part A (dose escalation; Figure 1, A and B), the starting dose of 20 mg was selected based on animal toxicity studies. Dosing was continuous, and escalation used a modified Fibonacci method. Initial dose escalation was planned in single patient cohorts, changing to 3+3 design after the first grade-2 toxicity was seen. […] DLT definitions are in the Supplemental Methods.
For part B, all patients received the RP2D as defined for part A. Part B allowed for different schedules (continuous/intermittent) to be assessed. Initially, a continuous dosing schedule was used for the first 6 patients. […] Pretreatment biopsy was mandatory in part B. DNA-Seq of archival tumor material or review of external tumor sequencing was used to enrich for patients with putative genomic markers of sensitivity to ATRi, based on preclinical data, including oncogene amplification or driver mutation, ATM/G1 pathway defects (alteration in ATM, CHK2, or other components of the pathway causing G1 cell-cycle arrest after DNA damage), SWI/SNF (switch/sucrose nonfermentable, a chromatin-remodeling complex) pathway defect, genomic instability/homologous recombination deficit (HRD), or defect in a gene synthetically lethal with ATRi in published data ([46], [47]) (Figure 1B and Supplemental Table 3).
Patients were assessed weekly during cycle 1 and twice weekly thereafter, with safety assessments including blood hematology and biochemistry, physical examination, and toxicity scoring.

[5] = 160 mg BD intermittent schedule

C[C@@H]1COCCN1c1cc(C2([S@](C)(=N)=O)CC2)nc(-c2cc[nH]c3nccc2-3)n1 [ceralasertib]
Stromal TILs, paired samples (tumor biopsies [1]; a responding patient (not in 3 nonresponders)): appeared to increase
Immune-cell infiltration and PD-L1 staining on immune cells in paired biopsies (tumor biopsies [1]; responding patient, 40 mg BD, HNSCC, 2 weeks): increase
CIBERSORTx proportion CD8, on-treatment tumor biopsy (tumor biopsies [2]; D15 PR): 0
CIBERSORTx proportion M0 Mac, on-treatment tumor biopsy (tumor biopsies [2]; D15 PR): 0.1391 and 0.5318 and 0.5438
CIBERSORTx proportion M1 Mac, on-treatment tumor biopsy (tumor biopsies [2]; D15 PR): 0.1372 and 0 (2×)
CIBERSORTx proportion M2 Mac, on-treatment tumor biopsy (tumor biopsies [2]; D15 PR): 0.1138 and 0.03909 and 0.06393
CIBERSORTx proportion Naive B, on-treatment tumor biopsy (tumor biopsies [2]; D15 PR): 0.01104 and 0.04034 and 0
CIBERSORTx proportion Naive CD4, on-treatment tumor biopsy (tumor biopsies [2]; D15 PR): 0 and 0.0004844 and 0.004743
CIBERSORTx proportion Neutrophils, on-treatment tumor biopsy (tumor biopsies [2]; D15 PR): 0.03549 and 0.1415 and 0.09333
CIBERSORTx proportion Treg, on-treatment tumor biopsy (tumor biopsies [2]; D15 PR): 0
CIBERSORTx proportion active DC, on-treatment tumor biopsy (tumor biopsies [2]; D15 PR): 0.02084 and 0.01306 and 0.1026
CIBERSORTx proportion active NK, on-treatment tumor biopsy (tumor biopsies [2]; D15 PR): 0.09471 and 0 (2×)
CIBERSORTx proportion resting DC, on-treatment tumor biopsy (tumor biopsies [2]; D15 PR): 0
CIBERSORTx proportion resting NK, on-treatment tumor biopsy (tumor biopsies [2]; D15 PR): 0 and 0.07254 and 0.04433
CIBERSORTx proportion CD8, on-treatment tumor biopsy (tumor biopsies [2]; D15 non-PR): 0 (3×) and 0.09128
CIBERSORTx proportion M0 Mac, on-treatment tumor biopsy (tumor biopsies [2]; D15 non-PR): 0.07738 and 0.2479 and 0.5291 and 0.2524
CIBERSORTx proportion M1 Mac, on-treatment tumor biopsy (tumor biopsies [2]; D15 non-PR): 0 (2×) and 0.002883 and 0.04168
CIBERSORTx proportion M2 Mac, on-treatment tumor biopsy (tumor biopsies [2]; D15 non-PR): 0.325 and 0.00838 and 0.1257 and 0.0276
CIBERSORTx proportion Naive B, on-treatment tumor biopsy (tumor biopsies [2]; D15 non-PR): 0 (2×) and 0.07794 and 0.002559
CIBERSORTx proportion Naive CD4, on-treatment tumor biopsy (tumor biopsies [2]; D15 non-PR): 0
CIBERSORTx proportion Neutrophils, on-treatment tumor biopsy (tumor biopsies [2]; D15 non-PR): 0 (2×) and 0.09632 and 0.04836
CIBERSORTx proportion Treg, on-treatment tumor biopsy (tumor biopsies [2]; D15 non-PR): 0 (2×) and 0.01681 and 0.03886
CIBERSORTx proportion active DC, on-treatment tumor biopsy (tumor biopsies [2]; D15 non-PR): 0.01626 and 0.04266 and 0 (2×)
CIBERSORTx proportion active NK, on-treatment tumor biopsy (tumor biopsies [2]; D15 non-PR): 0.08744 and 0 (2×) and 0.005269
CIBERSORTx proportion resting DC, on-treatment tumor biopsy (tumor biopsies [2]; D15 non-PR): 0 (3×) and 0.002776
CIBERSORTx proportion resting NK, on-treatment tumor biopsy (tumor biopsies [2]; D15 non-PR): 0 and 0.1019 and 0.06313 and 0.04038
p-Chk1 levels in PBMCs with treatment (phospho-(S345)Chk1): not consistent
GI50 [3]: ~1 µM
TRAE Overall events: n (%) ([4]; 40 mg BD, G1–2): 7 (100)
TRAE Overall events: n (%) ([4]; 40 mg BD, G3): 0
TRAE Overall events: n ([4]; 40 mg BD): 7
TRAE Overall events: n (%) ([4]; 80 mg BD, G1–2): 18 (78)
TRAE Overall events: n (%) ([4]; 80 mg BD, G3): 5 (22)
TRAE Overall events: n ([4]; 80 mg BD): 23
Tolerability of intermittent versus continuous schedule ([4]; 160 mg BD): better tolerated
Incidence of G3 leukopenia ([4]; 160 mg BD continuous schedule): 8%
Incidence of G3 or greater anemia ([4]; 160 mg BD continuous schedule): 33%
TRAE Overall events: n (%) ([4]; 160 mg BD continuous, G1–2): 44 (90)
TRAE Overall events: n (%) ([4]; 160 mg BD continuous, G3): 5 (10)
TRAE Overall events: n ([4]; 160 mg BD continuous): 49
Incidence of G3 leukopenia [4, 5]: 0%
Incidence of G3 or greater anemia [4, 5]: 9%
TRAE Overall events: n (%) ([4]; 160 mg BD intermittent, G1–2): 100 (89)
TRAE Overall events: n (%) ([4]; 160 mg BD intermittent, G3): 11 (10)
TRAE Overall events: n (%) ([4]; 160 mg BD intermittent, G4): 1 (1)
TRAE Overall events: n ([4]; 160 mg BD intermittent): 112
TRAE Overall events: n (%) ([4]; 240 mg BD, G1–2): 26 (77)
TRAE Overall events: n (%) ([4]; 240 mg BD, G3): 8 (24)
TRAE Overall events: n (%) ([4]; 240 mg BD, G4): 7 (21)
Related SAE ([4]; 20 and 40 mg dose levels): N o related SAE
Treatment-related deaths ([4]; all 67 treated patients): no treatment-related deaths
Patients requiring dose reduction or interruption for toxicity ([4]; continuous schedule (incl. part A), 6 of 12): 50%
Patients withdrawn due to toxicity ([4]; dose-escalation phase): Four
Patients withdrawn due to toxicity ([4]; dose-expansion phase): 1
Patients requiring dose reduction or interruption for toxicity ([4]; intermittent schedule, 10 of 35): 29%
